In patent publication US11096967B2, “Pharmaceutical composition for preventing or treating regulatory T cell-mediated diseases” (SCM LIFESCIENCE CO., LTD., priority 2016, dated 2021):

Columns and labels:
Assay type in all cases: cell-based, human
[1] = system: PI3K-Akt signaling pathway; assay: Akt phosphorylation in CD4^+ T cells (Western blotting); settings: pre-treatment 30 min; LY294002 5 μM, GSK690693 1 μM
Experimental: Five independent experiments were carried out. […] After 2 days, hcMSCs were washed three times with cold phosphate-buffered saline (PBS) containing 0.05 mM ethylenediamine tetraacetic acid (EDTA) to detach lymphocytes from hcMSCs. Then, hcMSCs were trypsinized and washed twice with cold PBS-EDTA solution and stained with phycoerythrin (PE)-conjugated ICOSL antibody (BioLegend) to analyze ICOSL expression.
More particularly, CD4^+ T cells were pre-treated with LY294002 (5 μM) and GSK690693 (1 μM) for 30 min. […] Total Akt was determined.

CD4^+ T cells = assay: Effect of PI3K-Akt inhibitors on rhICOSL- or hcMSC-induced Treg induction; settings: 2 days; LY294002 5 μM, GSK690693 1 μM
Experimental: Akt inhibitor […] (Calbiochem, San Diego, Calif., USA) was used at a concentration of 1 μM and LY294002 (Cell Signaling Technology, Danvers, Mass., USA) was used at concentration of 5 to 10 μM. […] Total Akt was determined. […] The results are illustrated in FIG. 14.

ICOSL = ICOSL induction in hcMSC by priming factors (qRT-PCR, RT-PCR); settings: for levels of ICOSL mRNA in hcMSCs: IL-1β 10 ng/mL, TNF-α 10 ng/mL, LPS 2 μg/mL, qRT-PCR
Description: It has been known that the immunosuppressive activity of MSCs can be influenced by various priming or appropriate stimulations. It was confirmed that ICOSL expression in hcMSCs correlated with Treg induction. Thus, it was expected that ICOSL expression was enhanced to increase Treg and to strengthen the immunosuppressive function of hcMSCs. To confirm this expectation, an experiment was first carried out to confirm pro-inflammatory cytokine that can induce ICOSL expression. First, to find appropriate priming factors, hcMSCs were treated with IL-1β (10 ng/mL), TNF-α (10 ng/mL) and LPS (2 μg/mL) for 24 hours. Then, ICOSL expression was determined after 1 hour and 3 hours though qRT-PCR. Further, in order to confirm whether the expression of IL-1R in hcMSC was changed by […] treatment, the expression of IL-1R in hcMSC was confirmed after treatment with IL-1β for 24 hours. The results are illustrated in FIG. 16.

Compound | rhICOSL-induced Akt phosphorylation [1] | rhICOSL or hcMSC-induced Tregs (CD4^+ T cells) | levels of ICOSL mRNA in hcMSCs (ICOSL) | levels of ICOSL mRNA in hcMSCs (ICOSL; listed as IL-10) | expression of IL-1R mRNA in hcMSC (ICOSL; IL-1β 10 ng/ml, 24 hours)
CCn1c(-c2nonc2N)nc2c(C#CC(C)(C)O)ncc(OC[C@H]3CCCNC3)c21 [GSK690693] | marked decrease in Akt phosphorylation | decreased |  |  | 
TNF-α |  |  | increased |  | 
IL-1β: pro-inflammatory cytokine used as priming factor for hcMSCs |  |  | highest effect | increased | did not change the expression of IL-1R mRNA
